This assay concerns SARS-CoV-2. In words: cell-based anti-viral assay using Vero E6 cell line, viral RNA by qRT-PCR. To be noted: Vero E6 cells, 48 h; for ΔCt (1 μM) / inhibition at 1 µM: 1 μM compound; for ΔCt (1 μM) / ΔCt (5 μM): increase in Ct vs no-drug control; for ΔCt (5 μM) / inhibition at 5 µM: 5 μM compound; for inhibition at 1 µM / inhibition at 5 µM: Severe acute respiratory syndrome coronavirus 2, Vero C1008, calculated from ΔCt; for inhibition at 1 µM: read-out: % SARS-CoV-2 Inactivation (1 μM); for inhibition at 5 µM: read-out: % SARS-CoV-2 Inactivation (5 μM).

Each structure is given as a SMILES string. A value given as a limit tells only on which side of the number the result lay.

The text below walks through data of US20260042743A1, “SUBSTITUTED BENZIMIDAZOLES FOR TREATING VIRAL DISEASES” (COUNCIL OF SCIENTIFIC AND INDUSTRIAL RESEARCH, priority 2022, published 2026).

For the compound `FC(F)(F)c1ccc(Nc2nc3c(C(F)(F)F)cc(C(F)(F)F)cc3[nH]2)cc1` [Example 27, 4,6-bis(trifluoromethyl)-N-(4-(trifluoromethyl)phenyl)-1H-benzo[d]imidazol-2-amine], the “ΔCt (1 μM)” value is on record as 1.2, the “ΔCt (5 μM)” value came out at 8, the inhibition at 1 µM is less than 3% and the inhibition at 5 µM was greater than 99%.
In the same order, the values of `FC(F)(F)c1cc(C(F)(F)F)c2nc(Nc3ccccc3C(F)(F)F)[nH]c2c1` [Example 28, 4,6-bis(trifluoromethyl)-N-(2-(trifluoromethyl)phenyl)-1H-benzo[d]imidazol-2-amine] are −2, 2, less than 3% and less than 3%.
Consider `FC(F)(F)Oc1ccc2nc(Nc3cc(C(F)(F)F)cc(C(F)(F)F)c3)[nH]c2c1` [Example 29, N-(3,5-bis(trifluoromethyl)phenyl)-6-(trifluoromethoxy)-1H-benzo[d]imidazol-2-amine], for which the “ΔCt (1 μM)” value is listed as 4.7, the “ΔCt (5 μM)” value came out at 11.5, the inhibition at 1 µM is greater than 95% and the inhibition at 5 µM is 99.9%.
In the same order, the values of `FC(F)(F)Oc1ccc2nc(Nc3cccc(C(F)(F)F)c3)[nH]c2c1` [Example 30, 6-(trifluoromethoxy)-N-(3-(trifluoromethyl)phenyl)-1H-benzo[d]imidazol-2-amine] are 1.1, 11.1, less than 3% and 99.9%.
On to `FC(F)(F)c1cc(Nc2nc3ccc(C(F)(F)F)cc3[nH]2)cc(C(F)(F)F)c1` [Example 31, N-(3,5-bis(trifluoromethyl)phenyl)-6-(trifluoromethyl)-1H-benzo[d]imidazol-2-amine], for which the “ΔCt (1 μM)” value turned out to be 5.3, the “ΔCt (5 μM)” value turned out to be 9, the inhibition at 1 µM was greater than 95% and the inhibition at 5 µM is greater than 99%.
In the case of `FC(F)(F)c1cccc(Nc2nc3ccc(C(F)(F)F)cc3[nH]2)c1` [Example 32, 6-(trifluoromethyl)-N-(3-(trifluoromethyl)phenyl)-1H-benzo[d]imidazol-2-amine], the “ΔCt (1 μM)” value was determined as 0.2, the “ΔCt (5 μM)” value turned out to be 9.3, the inhibition at 1 µM was less than 3% and the inhibition at 5 µM was greater than 99%.
In the case of `FC(F)(F)c1ccc(Nc2nc3ccc(C(F)(F)F)cc3[nH]2)cc1` [Example 33, 6-(trifluoromethyl)-N-(4-(trifluoromethyl)phenyl)-1H-benzo[d]imidazol-2-amine], the “ΔCt (1 μM)” value is given as 1.4, the “ΔCt (5 μM)” value is listed as 14.3, the inhibition at 1 µM was less than 3% and the inhibition at 5 µM was 100%.
Turning to `FC(F)(F)c1cc(Nc2nc3c(C(F)(F)F)cccc3[nH]2)cc(C(F)(F)F)c1` [Example 34, N-(3,5-bis(trifluoromethyl)phenyl)-4-(trifluoromethyl)-1H-benzo[d]imidazol-2-amine], the “ΔCt (1 μM)” value came out at 13.1, the “ΔCt (5 μM)” value is on record as 15.1, the inhibition at 1 µM is greater than 99.9% and the inhibition at 5 µM was 100%.
Turning to `FC(F)(F)c1cccc(Nc2nc3c(C(F)(F)F)cccc3[nH]2)c1` [Example 35, 4-(trifluoromethyl)-N-(3-(trifluoromethyl)phenyl)-1H-benzo[d]imidazol-2-amine], the “ΔCt (1 μM)” value amounted to 1.7, the “ΔCt (5 μM)” value was 7.5, the inhibition at 1 µM is less than 3% and the inhibition at 5 µM was 99%.
With `FC(F)(F)c1ccc(Nc2nc3c(C(F)(F)F)cccc3[nH]2)cc1` [Example 36, 4-(trifluoromethyl)-N-(4-(trifluoromethyl)phenyl)-1H-benzo[d]imidazol-2-amine], the “ΔCt (1 μM)” value turned out to be 12, the “ΔCt (5 μM)” value was 12, the inhibition at 1 µM is greater than 99.9% and the inhibition at 5 µM was greater than 99.9%.
With `COc1ccc2nc(Nc3cc(C(F)(F)F)cc(C(F)(F)F)c3)[nH]c2c1` [Example 37, N-(3,5-bis(trifluoromethyl)phenyl)-6-methoxy-1H-benzo[d]imidazol-2-amine], the “ΔCt (1 μM)” value came to 5, the “ΔCt (5 μM)” value is listed as 4.3, the inhibition at 1 µM is greater than 95% and the inhibition at 5 µM was greater than 90%.
As to `Cn1c(Nc2ccccc2)nc2cc(F)c(F)cc21` [Example 38, 5,6-difluoro-1-methyl-N-phenyl-1H-benzo[d]imidazol-2-amine], the “ΔCt (1 μM)” value was 0.4, the “ΔCt (5 μM)” value is given as −0.1, the inhibition at 1 µM was less than 3% and the inhibition at 5 µM is less than 3%.
As for `Cn1c(Nc2cc(C(F)(F)F)cc(C(F)(F)F)c2)nc2cc(F)c(F)cc21` [Example 39, N-(3,5-bis(trifluoromethyl)phenyl)-5,6-difluoro-1-methyl-1H-benzo[d]imidazol-2-amine], the “ΔCt (1 μM)” value is listed as 0.5, the “ΔCt (5 μM)” value is 1, the inhibition at 1 µM is less than 3% and the inhibition at 5 µM was less than 3%.
For `CN(c1cccc(C(F)(F)F)c1)c1nc2c(C(F)(F)F)cc(C(F)(F)F)cc2[nH]1` [Example 40, N-methyl-4,6-bis(trifluoromethyl)-N-(3-(trifluoromethyl)phenyl)-1H-benzo[d]imidazol-2-amine], the “ΔCt (1 μM)” value is 5, the “ΔCt (5 μM)” value is recorded as 12.2, the inhibition at 1 µM is greater than 95% and the inhibition at 5 µM was greater than 99.9%.
As to `CN(c1cc(C(F)(F)F)cc(C(F)(F)F)c1)c1nc2c(C(F)(F)F)cc(C(F)(F)F)cc2[nH]1` [Example 41, N-(3,5-bis(trifluoromethyl)phenyl)-N-methyl-4,6-bis(trifluoromethyl)-1H-benzo[d]imidazol-2-amine], the “ΔCt (1 μM)” value was 3.8, the “ΔCt (5 μM)” value was found to be 13.4, the inhibition at 1 µM was greater than 90% and the inhibition at 5 µM was greater than 99.9%.
For `CN(c1cccc(C(F)(F)F)c1)c1nc2cccc(C(F)(F)F)c2[nH]1` [Example 42, N-methyl-7-(trifluoromethyl)-N-(3-(trifluoromethyl)phenyl)-1H-benzo[d]imidazol-2-amine], in that order: 1, 2.1, less than 3% and less than 3%.
Take `CN(c1ccc(C(F)(F)F)cc1)c1nc2cccc(C(F)(F)F)c2[nH]1` [Example 43, N-methyl-7-(trifluoromethyl)-N-(4-(trifluoromethyl)phenyl)-1H-benzo[d]imidazol-2-amine]: the “ΔCt (1 μM)” value was 1.8, the “ΔCt (5 μM)” value is given as 3.6, the inhibition at 1 µM was less than 3% and the inhibition at 5 µM is greater than 90%.
In the case of `CN(c1cc(C(F)(F)F)cc(C(F)(F)F)c1)c1nc2cccc(C(F)(F)F)c2[nH]1` [Example 44, N-(3,5-bis(trifluoromethyl)phenyl)-N-methyl-7-(trifluoromethyl)-1H-benzo[d]imidazol-2-amine], the “ΔCt (1 μM)” value came to 1.4, the “ΔCt (5 μM)” value was found to be 5, the inhibition at 1 µM is less than 3% and the inhibition at 5 µM was greater than 95%.
